Data reported in patent US5270472A, “Alkanoyl L-carnitine amides with aminoacids and pharmaceutical compositions containing same for promoting regeneration of the nervous tissue, inhibiting neuronal degeneration, enhancing the process of learning and memory and for the treatment of coma” (Sigma-Tau Industrie Farmaceutiche Riunite S.p.A., priority 1991, dated 1993).
Where a name gives a salt, the structure may show the parent alone.

Key:
PC 12 cells = experiment: Neurite outgrowth experiment; type: cell-based, rat
Protocol: The rat pheochromocytoma (PC 12) cell line was chosen as an in vitro model system for NGF-responsive neurons. PC 12 cells are a cell line derived from a tumor of rat adrenal medulla that display NGFR similar to those described for sympathetic and sensory neurons, PC 12 typically respond to NGF by elongating neurites and developing into electrically excitable cells featuring some characteristics of the post-mitotic cholinergic neuronal phenotype.
(§1) Rat pheochromocytoma ((PC 12) cells were grown in RPMI 1640, supplemented with 5% heat inactivated horse serum +5% heat inactivated fetal calf serum at 37° C. in humidified incubator with 5% CO2 atmosphere and fed on alternate days. At subconfluency, cells were dislodged by vigorous shaking and reseeded at 1:1 ratio. Acetyl L-carnitine ALCAR® and ST 857 were dissolved in RPMI and added to cells at the final concentrations indicated in the various experiments.
PC 12 cells were plated out into 35 mm Petri dishes at a density 2×10^5 cells/ml. On the sixth day of either ALCAR® or ST 857 treatment (1 mM), the cells were added with NGF dissolved in RPMI 1640 at a suboptimal concentration (i.e. ineffective to stimulate neurite outgrowth) of 1 ng/mL (0.037 nM). On day 5 after addition, 100-120 cells from 5-12 randomly chosen microscope fields were counted and assayed for presence of neurities. […]

[1] = system: choline acetyltransferase (ChAT); experiment: Choline acetyltransferase (ChAT) activity in PC 12 cells; type: cell-based, rat; conditions: 1 mM, 6 days
Protocol: as §1
The method described by Fonnum, F. in "A rapid radiochemical method for the determination of choline acetyltransferase". J. of Neurochem. (1975) vol. 24, 407:409 was used. Briefly, the compounds were added to the culture medium at final concentration of 1 mM.
The cells were grown for 6 days in the presence of ST 857. The medium was changed every other day. On the sixth day the cells were harvested and resuspended directly in a homogenization buffer for ChAT activity assay. Protein content was assayed on an aliquot of the cell suspensions.

HCN-1A cells = experiment: Effect on cultured human cortical cell line (HCN-1A); type: cell-based
Description: (§2) The HCN-1A cells are a non-tumoral cell line derived from human cortical neuroblasts which respond to NGF by differentiating into bipolar or multipolar neurite-bearing neurons.
HCN-1A cells show immunoreactivity for different neurotransmitters such as GABA, glutamate, somatostatin, cholccystokinin-8 […] and VIP (vasoactive intestinal polypeptide).

NGFR mRNA = NGFR mRNA in HCN-1A cells; type: cell-based, human; conditions: following ST 857 treatment
Description: as §2

Tolerability, LD50 = conditions: mouse, in vivo, mice
Protocol: In mice, LD50 orally is higher than 2 g/kg; LD50 intraperitoneally is higher than 600 mg/kg.

[2] = Tolerability, intraperitoneal or oral; type: in vivo
[3] = in the presence of NGF (10 ng/mL)

SMILES | enhancement of the action of NGF on PC 12 cells (PC 12 cells; compared with ALCAR® treatment) | stimulation of neurite outgrowth (in words) (PC 12 cells; in the absence of NGF) | ChAT activity ([1]; in the absence of NGF) [nmoli ACh/mg/hour] | ChAT activity [1, 3] [nmoli ACh/mg/hour] | neurite outgrowth and cell differentiation (HCN-1A cells; 1 mM) | GABA immunoreactivity and formation of functional synapses (HCN-1A cells; in the presence and in the absence of NGF (10 ng/ml)) | NGFR mRNA (NGFR mRNA) | LD50 (Tolerability, LD50; ip, intraperitoneally) [mg/kg] | LD50 (Tolerability, LD50; po, orally) [mg/kg] | tolerability [2]
CC(=O)O[C@H](CC(=O)N[C@@H](CCCNC(=N)N)C(=O)O)C[N+](C)(C)C [ST 857, L-acetyl L-carnitinamide of L-arginine chloride hydrochloride] | enhanced by ST 857 treatment more potently than by ALCAR® treatment | effective in stimulating neurite outgrowth, even in the absence of NGF | 46.6 ± 2.5 | 140.0 ± 8.9 | resulted in neurite outgrowth and cell differentiation toward the neuronal phenotype | induced also GABA immunoreactivity in HCN-1A and formation of functional synapses | increased in these cells following ST 857 treatment, in a manner similar to that elicited by NGF | > 600 | > 2000 | well tolerated
CC(=O)O[C@H](CC(=O)[O-])C[N+](C)(C)C [ACETYL L-CARNITINE, acetyl L-carnitine, reference compound] |  |  | 33.3 ± 4.2 | 133.3 ± 4.4 |  |  |  |  |  | 
